Measurements published in the supplement of paper PMC10307832.

Columns and labels:
Experiment in all cases: relative viability (nuclei count vs DMSO), 5 days (fraction); higher = more cells survive
[1] = compound: COC1=C(C=C(C=C1)C2=CC3=NC=CN3C(=N2)NC4=C(C=CC=N4)C(=O)N)OC [BAY61-3606] + CC(=O)c1c(C)c2cnc(Nc3ccc(N4CCNCC4)cn3)nc2n(C2CCCC2)c1=O [Palbociclib] (partner 0.5 µM)
How it was run: (§1)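 For relative viability, nuclei counts in treated wells were divided by those in vehicle wells. Lung cancer cell lines had been pin-tool dosed in 1536-well plates the day after seeding and cultured for 5 days, then fixed and stained in one step (final 0.05% Triton X-100, 1% formaldehyde, 1 ug/ml Hoechst) and imaged at 4×. Doses were one drug alone or a fixed anchor-drug dose plus five library-drug doses (not always all listed) in √10 steps, and values are duplicate-plate medians.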

[2] = compound: COc1cccc2c1C(=O)c1c(O)c3c(c(O)c1C2=O)C[C@@](O)(C(=O)CO)C[C@@H]3O[C@H]1C[C@H](N)[C@H](O)[C@H](C)O1 [Doxorubicin] + C[C@@H](Oc1cc(-c2cnn(C3CCNCC3)c2)cnc1N)c1c(Cl)ccc(F)c1Cl [Crizotinib] (partner 1 µM)
How it was run: as §1

[3] = compound: COC1=C(C=C(C=C1)C2=CC3=NC=CN3C(=N2)NC4=C(C=CC=N4)C(=O)N)OC [BAY61-3606] + NC(=O)Nc1cc(-c2cccc(F)c2)sc1C(=O)N[C@H]1CCCNC1 [AZD7762] (partner 0.2 µM)
How it was run: as §1

[4] = compound: COc1cccc2c1C(=O)c1c(O)c3c(c(O)c1C2=O)C[C@@](O)(C(=O)CO)C[C@@H]3O[C@H]1C[C@H](N)[C@H](O)[C@H](C)O1 [Doxorubicin] + Nc1ncn([C@H]2C[C@H](O)[C@@H](CO)O2)c(=O)n1 [Decitabine] (partner 2 µM)
How it was run: as §1

Cell Line | relative viability ([1]; first compound 0.02 µM) | relative viability ([1]; first compound 0.06325 µM) | relative viability ([1]; first compound 0.2 µM) | relative viability ([1]; first compound 0.6325 µM) | relative viability ([1]; first compound 2 µM) | relative viability ([2]; first compound 0.001 µM) | relative viability ([2]; first compound 0.003162 µM) | relative viability ([2]; first compound 0.01 µM) | relative viability ([2]; first compound 0.03162 µM) | relative viability ([2]; first compound 0.1 µM) | relative viability ([3]; first compound 0.02 µM) | relative viability ([3]; first compound 0.06325 µM) | relative viability ([3]; first compound 0.2 µM) | relative viability ([3]; first compound 0.6325 µM) | relative viability ([3]; first compound 2 µM) | relative viability ([4]; first compound 0.001 µM) | relative viability ([4]; first compound 0.003162 µM) | relative viability ([4]; first compound 0.01 µM) | relative viability ([4]; first compound 0.03162 µM) | relative viability ([4]; first compound 0.1 µM)
BEN | 0.456 | 0.438 | 0.477 | 0.442 | 0.509 | 0.925 | 0.968 | 0.825 | 0.707 | 0.832 | 0.78 | 0.637 | 0.672 | 0.694 | 0.808 | 0.757 | 0.714 | 0.712 | 0.62 | 0.607
EMC-BAC-2 | 0.516 | 0.515 | 0.513 | 0.587 | 0.547 | 0.793 | 0.824 | 0.748 | 0.674 | 0.692 | 1.12 | 0.888 | 1.1 | 1.32 | 1.12 | 0.983 | 0.781 | 0.614 | 0.321 | 0.338
LXF-289 | 0.533 | 0.587 | 0.62 | 0.677 | 0.665 | 0.761 | 0.832 | 0.832 | 0.837 | 0.805 | 1.13 | 1.1 | 1.04 | 1.24 | 1.24 | 0.41 | 0.413 | 0.395 | 0.317 | 0.392
ABC-1 | 0.39 | 0.576 | 0.705 | 0.796 | 0.716 | 1.09 | 1.28 | 0.804 | 0.294 | 0.209 | 0.644 | 0.793 | 0.716 | 0.701 | 0.873 | 0.993 | 1.18 | 0.955 | 0.708 | 0.726
EBC-1 |  |  |  |  |  | 0.222 | 0.189 | 0.179 | 0.177 | 0.164 |  |  |  |  |  |  |  |  |  | 
NCI-H2009 | 0.22 | 0.211 | 0.214 | 0.231 | 0.155 | 1.06 | 0.991 | 0.893 | 0.352 | 0.222 |  |  |  |  |  | 0.445 | 0.384 | 0.333 | 0.263 | 0.274
NCI-H520 | 0.218 | 0.246 | 0.254 | 0.265 | 0.22 | 0.649 | 0.597 | 0.793 | 0.616 | 0.501 |  |  |  |  |  | 0.53 | 0.471 | 0.416 | 0.328 | 0.47
SW 1573 | 0.455 | 0.423 | 0.35 | 0.344 | 0.248 | 0.905 | 0.794 | 0.85 | 0.687 | 0.69 |  |  |  |  |  | 0.566 | 0.417 | 0.166 | 0.129 | 0.098
NCI-H1563 |  |  |  |  |  | 0.826 | 0.728 | 0.584 | 0.522 | 0.447 |  |  |  |  |  |  |  |  |  | 
NCI-H1648 | 0.251 | 0.259 | 0.265 |  | 0.276 |  |  |  |  |  | 0.723 | 0.696 | 0.777 |  | 0.643 | 0.604 | 0.451 | 0.599 | 0.421 | 0.495
COR-L23 | 0.338 | 0.252 | 0.377 | 0.347 | 0.215 | 0.764 | 0.66 | 0.562 | 0.252 | 0.0977 |  |  |  |  |  | 0.427 | 0.452 | 0.391 | 0.253 | 0.157
COR-L 105 | 0.443 | 0.437 | 0.404 | 0.422 | 0.411 | 0.802 | 0.841 | 0.598 | 0.38 | 0.248 |  |  |  |  |  | 0.626 | 0.734 | 0.506 | 0.53 | 0.384
NCI-H661 | 0.408 | 0.378 | 0.413 | 0.42 | 0.477 | 0.971 | 1.21 | 1.08 | 1.02 | 0.993 |  |  |  |  |  | 0.561 | 0.568 | 0.506 | 0.426 | 0.337
A549 |  |  |  |  |  | 0.774 | 0.634 | 0.419 | 0.0759 | 0.0405 |  |  |  |  |  | 0.245 | 0.266 | 0.257 | 0.179 | 0.235
SK-MES-1 | 0.312 | 0.311 | 0.385 | 0.393 | 0.313 | 1.08 | 1.05 | 0.97 | 0.871 | 0.865 |  |  |  |  |  | 0.353 | 0.328 | 0.261 | 0.196 | 0.194
NCI-H1650 | 0.316 | 0.291 | 0.37 | 0.413 | 0.298 | 0.925 | 0.903 | 0.283 | 0.181 | 0.13 |  |  |  |  |  | 0.396 | 0.314 | 0.361 | 0.245 | 0.135
NCI-H1395 | 0.702 | 0.598 | 0.608 | 0.682 | 0.59 |  |  |  |  |  | 0.393 | 0.411 | 0.424 | 0.42 | 0.393 | 0.724 | 0.666 | 0.634 | 0.614 | 0.651
NCI-H2228 | 0.989 | 0.916 | 0.731 | 0.766 | 0.553 | 0.562 | 0.384 | 0.421 | 0.343 | 0.197 |  |  |  |  |  |  |  |  |  | 
NCI-H1299 |  |  |  |  |  | 0.952 | 0.981 | 0.939 | 0.874 | 0.49 |  |  |  |  |  |  |  |  |  | 
NCI-H2023 | 0.393 | 0.401 | 0.397 | 0.423 | 0.283 | 0.598 | 0.679 | 0.36 | 0.0967 | 0.0644 |  |  |  |  |  | 0.209 | 0.219 | 0.171 | 0.0903 | 0.0802
NCI-H522 | 0.938 | 0.823 | 1.23 | 0.982 | 0.704 |  |  |  |  |  | 0.796 | 0.698 | 0.692 | 0.762 | 0.822 | 0.647 | 0.704 | 0.634 | 0.683 | 0.601
IA-LM |  |  |  |  |  | 0.604 | 0.914 | 0.564 | 0.376 | 0.113 |  |  |  |  |  |  |  |  |  | 
SW 900 | 0.518 |  |  | 0.566 | 0.434 |  |  |  |  |  | 0.591 |  |  | 0.632 | 0.758 |  | 0.461 | 0.449 | 0.403 | 0.449
